In BindingDB's records for doi:10.1080/14756360701536455 (Pcsir Laboratories Complex, 2008) one finds IC50 data, which are given here for seven compounds.

The structures appear in SMILES notation.

Test [1] concerns the target Carboxylic ester hydrolase (Equus caballus, UniProt Q9N1N9). Kind of test: Cholinesterase Inhibition Assay. To be noted: pH 8; 25 °C. On the procedure:
Butyrylcholinesterase activity-inhibiting activities were measured by a slightly modified spectrophotometric method developed by Ellman. DTNB was used for the measurement of cholinesterase activity and butyrylthiocholine chloride was used as a substrate.

The target of test [2] is T1, Seed linoleate 13S-lipoxygenase-1 (Glycine max, UniProt P08170).
T1 sequence (P08170 whole entry): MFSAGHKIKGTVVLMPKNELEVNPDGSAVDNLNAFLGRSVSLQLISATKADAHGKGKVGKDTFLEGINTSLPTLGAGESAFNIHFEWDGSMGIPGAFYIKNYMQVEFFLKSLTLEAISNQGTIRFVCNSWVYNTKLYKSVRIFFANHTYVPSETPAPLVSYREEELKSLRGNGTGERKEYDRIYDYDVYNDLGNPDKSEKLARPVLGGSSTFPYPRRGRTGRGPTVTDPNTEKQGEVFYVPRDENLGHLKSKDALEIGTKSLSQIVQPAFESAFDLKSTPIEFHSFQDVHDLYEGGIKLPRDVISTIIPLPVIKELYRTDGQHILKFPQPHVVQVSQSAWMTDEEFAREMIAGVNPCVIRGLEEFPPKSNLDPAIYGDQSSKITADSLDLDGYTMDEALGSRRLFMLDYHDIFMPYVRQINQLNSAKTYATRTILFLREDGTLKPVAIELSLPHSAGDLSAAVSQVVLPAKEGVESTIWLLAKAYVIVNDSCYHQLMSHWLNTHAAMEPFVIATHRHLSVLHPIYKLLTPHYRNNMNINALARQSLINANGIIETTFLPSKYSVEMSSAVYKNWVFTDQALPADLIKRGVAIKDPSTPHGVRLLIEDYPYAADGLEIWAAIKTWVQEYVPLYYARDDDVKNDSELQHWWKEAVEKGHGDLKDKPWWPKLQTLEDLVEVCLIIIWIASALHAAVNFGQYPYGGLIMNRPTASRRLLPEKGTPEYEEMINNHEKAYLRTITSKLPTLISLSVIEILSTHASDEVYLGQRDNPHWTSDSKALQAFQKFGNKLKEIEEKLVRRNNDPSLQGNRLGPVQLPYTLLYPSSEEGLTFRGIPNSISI
Kind of test: Lipoxygenase Inhibition Assay. Particulars: pH 8; 25 °C. The protocol: LOX inhibiting activity was measured by modifying the spectrophotometric method developed by Tappel.

Carboxylic ester hydrolase, sequence (Q9N1N9 whole entry): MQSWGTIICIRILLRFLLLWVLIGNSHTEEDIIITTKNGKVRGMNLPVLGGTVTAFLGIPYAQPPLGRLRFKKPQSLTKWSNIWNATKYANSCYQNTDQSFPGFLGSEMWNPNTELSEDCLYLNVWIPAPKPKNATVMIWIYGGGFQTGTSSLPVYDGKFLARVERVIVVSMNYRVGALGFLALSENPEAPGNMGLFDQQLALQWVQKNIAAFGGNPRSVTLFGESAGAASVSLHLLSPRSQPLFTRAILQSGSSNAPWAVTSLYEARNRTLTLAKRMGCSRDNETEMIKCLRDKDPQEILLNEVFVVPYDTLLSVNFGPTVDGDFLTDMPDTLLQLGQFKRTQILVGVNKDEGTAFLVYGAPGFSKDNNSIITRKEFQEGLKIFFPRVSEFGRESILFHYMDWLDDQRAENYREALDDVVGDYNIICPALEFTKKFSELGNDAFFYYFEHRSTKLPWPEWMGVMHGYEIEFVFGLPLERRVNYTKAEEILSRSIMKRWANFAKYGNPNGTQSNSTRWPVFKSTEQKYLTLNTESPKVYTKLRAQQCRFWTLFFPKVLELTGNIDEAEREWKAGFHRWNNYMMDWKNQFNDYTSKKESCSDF

Consider `N#CC(=C1Nc2ccccc2C1=O)c1c[nH]c2ccccc12` [2-[Cyano(3-indolyl)methylene]-3-indolone, 1], for which the IC50 in test [1] was 23.5 µM; in test [2] it was 39.1 µM.

For `C=CC(CC(=NOS(=O)(=O)O)SC1OC(CO)C(O)C(O)C1O)OC(=O)CC1(O)C(=O)Nc2ccccc21` (stereo not drawn) [3'-Hydroxyepiglucoisatisin, 3], the figures for the half-inhibitory concentration (IC50) in test [1] and in test [2] were 16.3 µM and 30.6 µM, respectively.

Regarding `C=CC(CC(=NOS(=O)(=O)O)SC1OC(CO)C(O)C(O)C1O)OC(=O)CC1C(=O)Nc2ccccc21` (stereo not drawn) [Epiglucoisatisin, 2], the results for the IC50 in test [1] and in test [2] were 19.7 µM and 33.7 µM, respectively.

`COc1ccc2c3c1O[C@H]1C[C@@H](O)C=C(CN(C)C2)[C@H]31` [Galanthamine, 7] came in with an IC50 in test [1] of 8.5 µM. That is a single-digit micromolar value.

Regarding `O=C(O)CC(=O)OCC1OC(Oc2c[nH]c3ccccc23)C(O)C(=O)C1O` (stereo not drawn) [Isatan A, 5], the half-inhibitory concentration (IC50) is 43.4 µM in test [1] and 49.3 µM in test [2].

Consider `O=C1C(O)C(CO)OC(Oc2c[nH]c3ccccc23)C1O` (stereo not drawn) [Isatan B, 6], for which the values for the half-inhibitory concentration (IC50) in test [1] and in test [2] were 47.6 µM and 53.8 µM, respectively.

As for `O=S(=O)(O)ON=C(Cc1cc2ccccc2n1S(=O)(=O)O)SC1OC(CO)C(O)C(O)C1O` (stereo not drawn) [Sulfoglucobrassicin, 4], the figures for the 50% inhibitory concentration (IC50) in test [1] and in test [2] were 24.8 µM and 41.9 µM, respectively.

One may read the IC50 as the point on the concentration scale where inhibition reaches its midpoint.
